Laboratory results from patent publication US4251628A, “Substrates for angiotensin converting enzyme” (priority 1978, dated 1981).
Read-outs that look alike come from different tables or passages of the source. Ends that are not written are not given here. Peptide text beside a SMILES is read from it.

Columns and labels:
[1] = target: T1, serum angiotensin converting enzyme (ACE) (Homo sapiens, UniProt P12821); assay: biochemical; assay type: biochemical; conditions: for ACE Activity as % of control: 60 min; for Mode of inhibition (in words): ACE catalyzed hydrolysis of ^3H-HipGlyGly
T1 construct: the activity observed with the present assay method in human serum is identical to ACE; from tissue; host or cells: human serum (unfractionated)
Experimental: The reaction buffer contains 0.05 M Hepes, 0.1 M sodium chloride and 0.6 M sodium sulphate at pH 8.0. (Pepes is N-2-Hydroxyethyl piperazine N'-2-ethane sulfonic acid.) The substrate, ^3 H-HipGlyGly was dissolved in reaction buffer at a concentration of 16 mM and a specific radioactivity of about 0.15 millicuries/millimole. Serum was prepared from fresh whole blood by standard techniques. […] Hemolyzed samples were not used in the assay. […] For the assay, 50 μl. of serum was diluted with 200 μl. of reaction buffer. All the reactions were carried out in glass tubes due to the potentially destructive action of ethyl acetate on plastic.
(§1) The reaction mixture was composed of 50 μl. of diluted serum, an appropriate amount of substrate solution depending on the final substrate concentration desired, and reaction buffer sufficient to give a total reaction volume of 100 μl. All reaction tubes were incubated for 60 minutes at 37° C. Reactions were terminated by the addition of 1.0 ml. of 0.1 N hydrochloric acid. The reaction mixture was then extracted with 1.0 ml. ethyl acetate, by rotary agitation for 4-5 seconds. The phases were separted by centrifugation at 1000×G for ten minutes. A 0.5 ml. sample of the ethyl acetate (upper) layer was removed and tranferred to a scintillation vial containing 10 ml. scintillation fluid. (Riafluor, Trademark, New England Nuclear Corp., Boston, Mass.)
A control determination of background radioactivity was made using 50 μl. of reaction buffer instead of diluted serum in the reaction mixture. The purpose of this control was to determine the number of total counts attributable to background radiation, non-specific release of hippuric acid and the presence of unreacted substrate in the ethyl acetate phase. […] Total radioactivity was determined by counting an amount of substrate equal to that used in the reaction mixture directly in the scintillation counter.
(§2) Reaction velocity, in terms of nanomoles of product formed per minute per ml of serum was calculated according to the following formula: [formula] In this formula, "nmoles" means nanomoles, "min" means minutes, "ml" means milliliters and "cpm" means radioactivity counts per minute. The factor of 2 is a correction for the aliquot size.
In this series of reactions, the procedure described in Ex. 1 was followed except that the substrate concentration was 8 mM throughout and specific inhibitor substances were added at the indicated final concentration. Bradykinin, angiotensin I, BPP5α and EDTA have been described hereinabove. BPP9α (SQ20881) is a nonapeptide from snake venom having the sequence <GluTryProArgProGlnIleProPro.
*Standard assay conditions as described in Example 1 were used.
**ΔCPM = (CPM of compound CPM of Blank)

[2] = target: T2, angiotensin converting enzyme (ACE) (Homo sapiens, UniProt P12821); assay: Hydrolysis of ^3H-BenzoylProPheArg by normal human serum: effect of various compounds; assay type: biochemical; conditions: ^3H-BenzoylProPheArg substrate
T2 construct: Serum was prepared from fresh whole blood by standard techniques; from tissue; host or cells: serum (unfractionated)
Experimental: Hydrolysis of […] ^3 H-BenzoylProPheArg using the standard reaction procedure of Example 1 with normal human serum as the ACE source was measured in the absence and in the presence of competing substrates and an inhibitor.

[3] = Extraction (partition) into ethyl acetate; assay type: physicochemical
Excerpt: (§3) Reaction conditions optimal for carrying out an ACE catalyzed hydrolysis of a substrate of the present invention are the same as have been previously described for substrates known in the prior art. Detailed studies of optimal conditions using HipGlyGly as substrate have been reported by Dorer, et al. The pH optimum is approximately 8.0 although greater than 50% maximal activity is obtained in the pH range 7.0-9.0, in the presence of 1 M NaCl. […] The relationship between the chloride requirement and the ionic strength requirement has not been fully characterized. […] Phosphate is inhibitory. Hepes, bicine and barbital buffers are suitable for use but Hepes is preferred because it provides maximum activity. Preferred conditions of buffer composition, ionic strength, pH and temperature are described in Example 1. […] The pH range for usable enzyme activity is from pH 6.5 to pH 8.7, with a broad plateau of maximal activity ranging from pH 7.2 to pH 8.5. Optimal substrate concentration depends upon the apparent Km, for the substrate compared with the Km's of possible competing substances in the sample. A substrate having a relatively low Km, such as ^3 H-benzoylProPheArg (Km 2×10^-4 M) could be suitably used at a concentration less than its Km. A substrate having a higher Km might better be used at a concentration greater than its Km. […] Because its Km is the lowest of any of the substrates of the present invention, ^3 H-benzoylProPheArg is the most preferred substrate for assays where ACE activity is low and maximum sensitivity is desired. In addition to being less sensitive to competitive inhibition, assays carried out with this substrate are potentially able to measure lower levels of ACE than the other substrates disclosed herein. Additionally, its partition behavior in an aprotic organic solvent is extremely favorable: only about 3% entered ethyl acetate in a preliminary extraction experiment. The remnant product Benzoylproline was about 90% extracted.
The remnant reaction product may be extracted from the reaction mixture by an aprotic organic solvent which affords a reasonably quantitative separation of product from substrate. The use of solvents which may interfere with the counting process is to be avoided. Ethyl acetate is preferred. Approximately 91% of ^3 H-Hippuric acid is extracted into ethyl acetate. Extraction may be carried out by any suitable means familiar to those skilled in the art, such as shaking, agitating, mixing and the like. Separation of the phases is conveniently accomplished by centrifugation. Centrifugation at 1000×G for ten minutes is preferred, either at room temperature or in a refrigerated centrifuge. In some cases, an emulsion will form which can be separated by a longer centrifugation step.
A control determination of background radioactivity was made using 50 μl. of reaction buffer instead of diluted serum in the reaction mixture. The purpose of this control was to determine the number of total counts attributable to background radiation, non-specific release of hippuric acid and the presence of unreacted substrate in the ethyl acetate phase. Less than 7% of the ^3 H-HipGly Gly entered the organic phase. Total radioactivity was determined by counting an amount of substrate equal to that used in the reaction mixture directly in the scintillation counter. […]

[4] = tested on: angiotensin converting enzyme (ACE); conditions: buffer component / additive; cited from earlier work
[5] = target: T2, angiotensin converting enzyme (ACE); assay: ACE assay: hydrolysis of ^3H-HipGlyGly by human serum, Lineweaver-Burke Km; assay type: biochemical; conditions: when about 20% or more of the substrate has been hydrolyzed
Experimental: The following sample illustrates the preferred assay method, the sensitivity of the assay and the Km for ^3 H-HipGlyGly. The reaction buffer contains 0.05 M Hepes, 0.1 M sodium chloride and 0.6 M sodium sulphate at pH 8.0. (Pepes is N-2-Hydroxyethyl piperazine N'-2-ethane sulfonic acid.) The substrate, ^3 H-HipGlyGly was dissolved in reaction buffer at a concentration of 16 mM and a specific radioactivity of about 0.15 millicuries/millimole. Serum was prepared from fresh whole blood by standard techniques. […] Hemolyzed samples were not used in the assay. Serum samples could be stored at least for one week at 2° C. to 8° C. or for at least 8 weeks frozen, prior to assaying. For the assay, 50 μl. of serum was diluted with 200 μl. of reaction buffer. All the reactions were carried out in glass tubes due to the potentially destructive action of ethyl acetate on plastic.
as §1
A control determination of background radioactivity was made using 50 μl. of reaction buffer instead of diluted serum in the reaction mixture. The purpose of this control was to determine the number of total counts attributable to background radiation, non-specific release of hippuric acid and the presence of unreacted substrate in the ethyl acetate phase. Less than 7% of the ^3 H-HipGly Gly entered the organic phase. Total radioactivity was determined by counting an amount of substrate equal to that used in the reaction mixture directly in the scintillation counter.
as §2, with “size. In the case where a significant fraction of substrate has been hydrolyzed, and the substrate in one which is more soluble in the organic phase, as for example, ^125 I-HPPGlyGlyGly, a modified formula is used to take account of the decreasing amount of substrate as the reaction progresses: [formula]” for “size.”
Reciprocal values of initial substrate concentration and reaction velocity were calculated and graphed according to the method of Lineweaver and Burke, as shown in FIG. 1. A straight line was obtained, which intercepted the ordinate at a value equal to the reciprocal of the maximum velocity of the enzyme reaction and intercepted the abcissa at a value equal to the negative reciprocal of the apparent Michaelis constant. […] It can be seen that reaction velocities as low as 12 nanomoles of substrate hydrolyzed per minute per ml. of serum can readily be measured.

[6] = tested on: angiotensin converting enzyme (ACE); assay: ACE-catalyzed hydrolysis: Km, pH, chloride and buffer dependence; assay type: biochemical
Excerpt: as §3

[7] = 1 h, read-out: ACE Activity as % of control

T1 sequence (P12821 30-1232 limits assumed): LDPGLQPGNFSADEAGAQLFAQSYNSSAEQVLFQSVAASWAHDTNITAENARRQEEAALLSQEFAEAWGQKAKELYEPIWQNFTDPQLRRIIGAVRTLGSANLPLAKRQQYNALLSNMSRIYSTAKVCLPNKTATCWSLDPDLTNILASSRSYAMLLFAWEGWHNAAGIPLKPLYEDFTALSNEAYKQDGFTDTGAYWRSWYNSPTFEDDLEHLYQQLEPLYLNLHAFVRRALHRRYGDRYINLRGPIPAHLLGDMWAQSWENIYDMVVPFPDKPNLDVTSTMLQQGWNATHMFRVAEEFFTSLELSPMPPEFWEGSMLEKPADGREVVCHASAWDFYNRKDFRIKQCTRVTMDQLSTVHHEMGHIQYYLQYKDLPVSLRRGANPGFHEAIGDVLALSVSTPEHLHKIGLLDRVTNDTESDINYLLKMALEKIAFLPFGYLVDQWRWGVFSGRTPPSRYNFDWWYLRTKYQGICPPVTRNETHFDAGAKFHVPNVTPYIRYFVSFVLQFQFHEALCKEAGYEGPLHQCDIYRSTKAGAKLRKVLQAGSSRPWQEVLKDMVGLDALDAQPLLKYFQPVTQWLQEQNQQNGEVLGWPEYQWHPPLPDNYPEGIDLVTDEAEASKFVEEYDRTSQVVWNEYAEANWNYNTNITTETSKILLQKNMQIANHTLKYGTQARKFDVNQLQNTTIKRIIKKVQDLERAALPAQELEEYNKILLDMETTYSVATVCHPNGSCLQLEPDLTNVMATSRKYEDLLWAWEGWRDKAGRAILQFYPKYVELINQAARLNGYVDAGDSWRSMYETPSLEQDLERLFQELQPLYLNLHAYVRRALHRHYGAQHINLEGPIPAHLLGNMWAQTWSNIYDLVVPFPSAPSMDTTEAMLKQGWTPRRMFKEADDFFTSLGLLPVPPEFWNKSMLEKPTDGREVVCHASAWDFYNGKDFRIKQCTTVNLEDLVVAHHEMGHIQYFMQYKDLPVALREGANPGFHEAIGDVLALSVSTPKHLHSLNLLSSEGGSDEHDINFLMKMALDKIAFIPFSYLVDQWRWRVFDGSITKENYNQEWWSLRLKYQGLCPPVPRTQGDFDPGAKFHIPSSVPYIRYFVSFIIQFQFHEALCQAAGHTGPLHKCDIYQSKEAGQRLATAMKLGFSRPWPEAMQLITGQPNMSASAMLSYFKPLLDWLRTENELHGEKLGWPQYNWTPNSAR
T2 sequence (P12821 30-1232 limits assumed): as above

CC[C@H](C)[C@H](NC(=O)[C@H](CCC(N)=O)NC(=O)[C@@H]1CCCN1C(=O)[C@H](CCCNC(=N)N)NC(=O)[C@@H]1CCCN1C(=O)[C@H](Cc1c[nH]c2ccccc12)NC(=O)[C@@H]1CCC(=O)N1)C(=O)N1CCC[C@H]1C(=O)N1CCC[C@H]1C(=O)O [BPP9α (SQ20881)]
Δ CPM (counts per minute) ([1]; 2.8 × 10^-9 M, substrate 8 mM): 2200 counts per minute
Δ CPM (counts per minute) ([1]; 9 × 10^-8 M, substrate 8 mM): 1410 counts per minute
remaining activity at 0.0028 µM [1, 7]: 58%
remaining activity at 0.09 µM [1, 7]: 37%
remaining activity at 33 µM ([2]; 3.3 × 10^-5 M, read-out: ACE Activity As % of Control): 28%

O=C(O)[C@@H]1CCCN1C(=O)c1ccccc1 [Benzoylproline]
Fraction extracted into ethyl acetate [3]: about 90%

O=C(O)CN(CCN(CC(=O)O)CC(=O)O)CC(=O)O [EDTA, Ethylene diamine tetraacetic acid]
Δ CPM (counts per minute) [1]: 1178
remaining activity at 900 µM [1, 7]: 31%
remaining activity at 1000 µM ([2]; 1 × 10^-3 M, read-out: ACE Activity As % of Control): 23%
Inhibition of ACE (in words) [4]: potent inhibitor of ACE

NCC(=O)NCC(=O)O [GlyGly] (H-Gly-Gly-OH)
Product inhibition (in words) [5]: Product inhibition has been observed

[3H]c1ccc(C(=O)N2CCC[C@H]2C(=O)N[C@@H](Cc2ccccc2)C(=O)N[C@@H](CCCNC(=N)N)C(=O)O)cc1 [^3 H-BenzoylProPheArg, ^3 H-benzoylprolylphenylalanylarginine]
Fraction extracted into ethyl acetate [3]: about 3%
Km ([6]; ^3H-benzoylProPheArg as substrate): 200 µM
Chloride / ionic strength requirement of the ACE-catalyzed hydrolysis ([6]; by substrate): chloride ions and high total ionic strength do not greatly affect the rate

[3H]c1ccc(C(=O)NCC(=O)O)cc1 [^3 H-Hippuric acid, Hippuric acid (Benzoyl glycine)]
Fraction extracted into ethyl acetate [3]: Approximately 91%

Angiotensin I: decapeptide angiotensin I, having the sequence AspArgValTyrIleHisProPheHisLeu (DRVYIHPFHL; printed: AspArgValTyrIleHisProPheHisLeu)
Δ CPM (counts per minute) ([1]; 4.5 × 10^-5 M, substrate 8 mM): 1278 counts per minute
ACE Activity as % of control ([1]; 4.5 × 10^-5 M, substrate 8 mM, 45 µM): 34 % of control
Δ CPM (counts per minute) ([1]; 9 × 10^-6 M, substrate 8 mM): 2557 counts per minute
ACE Activity as % of control ([1]; 9 × 10^-6 M, substrate 8 mM, 9 µM): 67 % of control
Δ CPM (counts per minute) ([1]; 9 × 10^-7 M, substrate 8 mM): 3057 counts per minute
ACE Activity as % of control ([1]; 9 × 10^-7 M, substrate 8 mM, 0.9 µM): 81 % of control
Mode of inhibition (in words) [1]: competitive inhibitors
ACE Activity As % of Control ([2]; 7.1 × 10^-5 M, 71 µM): 27 % of Control

Phosphate
Inhibition of ACE (in words) [4]: inhibitory

RPPGFSPFR [Bradykinin]
Δ CPM (counts per minute) ([1]; 2.7 × 10^-5 M, substrate 8 mM): 1553 counts per minute
Δ CPM (counts per minute) ([1]; 2.7 × 10^-6 M, substrate 8 mM): 3165 counts per minute
Δ CPM (counts per minute) ([1]; 2.7 × 10^-7 M, substrate 8 mM): 3267 counts per minute
remaining activity at 0.27 µM [1, 7]: 86%
remaining activity at 2.7 µM [1, 7]: 83%
remaining activity at 27 µM [1, 7]: 41%
Mode of inhibition (in words) [1]: competitive inhibitors
remaining activity at 82 µM ([2]; 8.2 × 10^-5 M, read-out: ACE Activity As % of Control): 21%
